Data: patent US8895552B2, “Cyclic amide derivative” (Sumitomo Dainippon Pharma Co., Ltd., priority 2010, dated 2014)

Target: T1, cortisone reductase (11βHSD1) (Mus musculus, UniProt P50172)
T1 construct: host or cells: primary cells from visceral fat tissue of ICR male mice, differentiated to adipocytes in culture
Experiment: Inhibitory activity assay against cortisone reductase of mouse primary adipocytes
Assay type: cell-based
Settings: differentiated primary adipocytes from visceral fat of ICR male mice, 100 nM [1,2-3H] cortisone, 37° C., read-out: IC50 against cortisone reductase of mouse adipose cell
Method: Experiment 2: Inhibitory Activity Assay Against Cortisone Reductase of Mouse Primary Adipocytes
The adipose tissues adhered to the mesenterium and around the testicle of ten ICR male mice (9 to 11 weeks old, Japan SLC Inc.) (hereinafter, referred to as visceral fat tissue) were soaked in about 100 mL of a phosphate buffer (0.20 g/L KCl, 0.20 g/L KH2PO4, 8.00 g/L NaCl, 2.16 g/L Na2HPO4.7H2O, 100 unit/ml penicillin (GIBCO), 100 μg/ml streptomycin (GIBCO), 250 ng/ml amphotericin (GIBCO)) and washed at room temperature.
The excised visceral fat tissues was cut finely in about 5×5 mm with scissors in Dulbecco's modified Eagle medium (about 50 ml, containing 4.5 g/L D-glucose and 584 mg/L L-glutamine, GIBCO) to which collagenase (Type II, Sigma), penicillin (GIBCO), streptomycin (GIBCO) and amphotericin (GIBCO) were added in an amount so that the final concentrations thereof are adjusted to 1 mg/ml, 100 unit/ml, 100 μg/ml and 250 ng/ml, respectively. Then, the mixture was shaken at 37° C. for 30 minutes (about 170 rpm), filtered through nylon mesh (80S [the pore size: 250 μm], SANSHIN INDUSTRIAL CO., LTD.), and the filtrate (cell suspension) was collected. This filtrate was centrifuged at 1800 rpm at room temperature for 5 minutes, and then, the liquid layer was removed stilly by decantation to give a precipitate. This precipitate was suspended in Dulbecco's modified Eagle medium (30 ml, containing 4.5 g/L D-glucose and 584 mg/L L-glutamine, GIBCO; hereinafter, occasionally referred to as FBS-containing medium), to which fetal bovine serum (hereinafter referred to as FBS, GIBCO), ascorbic acid (Wako Pure Chemical Industries, Ltd.), penicillin (GIBCO), streptomycin (GIBCO) and amphotericin (GIBCO) are added thereto in an amount so that the final concentrations thereof were adjusted to 10%, 200 μM, 100 units/ml, 100 μg/ml and 250 ng/ml, respectively, and then the suspension was filtered through a nylon mesh (420S [pore size: 25 μm], SANSHIN INDUSTRIAL CO., LTD.). The filtrate was collected, and centrifuged at 1800 rpm at room temperature for 5 minutes. The liquid layer was removed stilly by decantation, and the precipitate was suspended again in the FBS-containing medium (30 ml). This suspension was treated by the same procedure (centrifugation, removal of liquid layer, suspension in FBS-containing medium) two times more, and the suspension (90 ml) was prepared. This suspension was put into cell culture flasks (T150, for adhered cell culture, Iwaki Glass) in a each volume of 30 ml, and incubated at 37° C. in the presence of 5% CO2. At 5 to 6 hours after starting incubation, the medium was removed, and the wall of the flask was washed with the above-mentioned phosphate buffer (15 ml). The washing liquid was removed, and the washing procedure was repeated again, and the phosphate buffer was removed. To the flask was added FBS-containing medium (30 ml), and the mixture was incubated at 37° C. in the presence of 5% CO2. On Day 1 or Day 2 after the culture started, the medium was removed, and the wall of the flask was washed with the phosphate buffer (15 ml) once. To the flask was added a trypsin-ethylenediamine tetraacetate (hereinafter, referred to as trypsin-EDTA) solution (0.05% trypsin, 0.53 mM EDTA.4Na, GIBCO) in such a volume that the cells are duly soaked, and the mixture was allowed to stand at 37° C. for 5 minutes. To this mixture was added the FBS-containing medium in about 10-times volume of that of the trypsin-EDTA solution, and then the cell suspension was obtained.
The cells in the cell suspension were counted with a counting chamber, and the cell suspension was diluted with the FBS-containing medium so that the concentration of the cell was adjusted to 1.4×10^5 cells/ml. Thus obtained cell dilution was put into a 48-well plate (for adherent cell culture, Iwaki Glass) in an amount of 300 μl per well, and the plate was incubated at 37° C. in the presence of 5% CO2 for 1 to 2 day(s). […]

T1 sequence (P50172 whole entry): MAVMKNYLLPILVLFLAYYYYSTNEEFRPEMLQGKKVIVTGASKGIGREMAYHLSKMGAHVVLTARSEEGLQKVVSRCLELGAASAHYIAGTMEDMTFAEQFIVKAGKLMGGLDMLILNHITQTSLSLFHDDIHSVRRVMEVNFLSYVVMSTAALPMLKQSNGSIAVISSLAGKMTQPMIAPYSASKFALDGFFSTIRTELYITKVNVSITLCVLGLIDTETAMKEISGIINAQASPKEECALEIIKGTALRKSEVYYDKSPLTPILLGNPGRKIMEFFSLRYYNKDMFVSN

| Structure (SMILES) | IC50 |
| --- | --- |
| Cc1cc(C(=O)C2CCOCC2)sc1C(=O)N[C@H]1C2CC3CC1C[C@](O)(C3)C2 [Example 9] | 11.1 nM |
| Cc1cc(C(=O)c2cccs2)sc1C(=O)NC1C2CC3CC1CC(O)(C3)C2 (stereo not drawn) [Example 10] | 11.7 nM |
| Cc1cc(C(=O)c2cccn2C)sc1C(=O)NC1C2CC3CC1CC(O)(C3)C2 (stereo not drawn) [Example 11] | 5.1 nM |
| COc1cc(C(=O)c2cccn2C)ccc1C(=O)NC1C2CC3CC1CC(O)(C3)C2 (stereo not drawn) [Example 55] | 4.8 nM |
| CCOc1cc(C(=O)c2cc(F)ccc2F)ccc1C(=O)NC1C2CC3CC1CC(O)(C3)C2 (stereo not drawn) [Example 258] | 3.2 nM |
| CCc1cc(C(=O)c2cccn2C)n(C)c1C(=O)NC1C2CC3CC1CC(O)(C3)C2 (stereo not drawn) [Example 485] | 18.4 nM |
| CCc1cc(C(=O)c2c(F)cccc2F)n(C)c1C(=O)NC1C2CC3CC1CC(O)(C3)C2 (stereo not drawn) [Example 487] | 25 nM |
| CCc1cc(C(=O)C(C)(C)c2ccccc2)n(C)c1C(=O)NC1C2CC3CC1CC(O)(C3)C2 (stereo not drawn) [Example 505] | 9.6 nM |
| Cn1c(C(=O)c2ccccc2F)cc(Cl)c1C(=O)NC1C2CC3CC1CC(O)(C3)C2 (stereo not drawn) [Example 514] | 20.7 nM |

Target: T2, 11βHSD1 (Homo sapiens, UniProt P28845)
T2 construct: host or cells: normal human visceral preadipocytes differentiated to adipocytes
T2 sequence (P28845 whole entry): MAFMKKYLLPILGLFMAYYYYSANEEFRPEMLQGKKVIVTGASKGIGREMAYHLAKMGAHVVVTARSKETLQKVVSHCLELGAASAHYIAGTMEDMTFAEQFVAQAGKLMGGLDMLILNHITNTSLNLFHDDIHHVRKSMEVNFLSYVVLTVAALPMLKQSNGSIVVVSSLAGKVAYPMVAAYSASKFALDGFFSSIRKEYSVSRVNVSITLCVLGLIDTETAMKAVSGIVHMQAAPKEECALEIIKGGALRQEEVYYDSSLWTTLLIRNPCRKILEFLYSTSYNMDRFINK
Experiment: Inhibitory activity assay against cortisone reducing activity of cultured human adipocytes
Assay type: cell-based
Settings: differentiated normal human preadipocytes (HPrAD-vis), 100 nM [1,2-3H] cortisone, 37° C., read-out: IC50 against cortisone reducing activity of human adipose cell
Method: Experiment 1: Inhibitory Activity Assay Against Cortisone Reducing Activity of Cultured Human Adipocytes
Normal human preadipocytes (HPrAD-vis, manufactured by Cambrex corporation) were inoculated onto a 48-well cell culture plate, and the differentiation induction was carried out according to Protocol attached to the kit. The medium for the cells on the 9-11 days of the differentiation was changed to D-MEM medium (0.2 ml; manufactured by GIBCO) containing 100 nM [1,2-^3H] cortisone (1 μCi/well, manufactured by Muromachi Yakuhin), 0.5% dimethylsulfoxide and a test compound (for test compound treated group, or dimethylsulfoxide only for the no-test compound treated group). The plate was incubated at 37° C. for 3 hours, and then the whole medium was collected. As a background group, the medium without cell was used. The medium was mixed with ethyl acetate (0.1 ml) in an Eppendorf tube. This mixture was voltexed, and then further centrifuged at 5,000 rpm for one minute at room temperature to separate the ethyl acetate (the upper layer). The ethyl acetate (10 μl) was spotted on an aluminium plate for thin layer chromatography (silica gel 60 angstrom, Merck & Co., Inc., hereinafter referred to as TLC plate). The developing solvent (chloroform/methanol (90:10, v/v)) was put into a sealed vessel, and the TLC plate was developed, and then dried at room temperature. An imaging plate (TR-2040, Fujifilm) was exposed onto the dried TLC plate for 16 hours or more. After the exposure was completed, the imaging plate was analyzed by Bioimage Analyzer (BAS2500, Fujifilm), and the [^3H] radioactivity was measured at the corresponding position of cortisol developed on the TLC plate. The inhibitory activity of a test compound against cortisone reducing activity was calculated according to the following equation. (inhibitory activity(%))=100×((group without test compound)−(group with test compound))/((group without test compound)−(background group))
The IC50 value was calculated by linear regression of logarithmic value of the concentration of test compound and the inhibitory activity value, using the data at 2 points showing around 50% of the inhibitory activity. […] The IC50 value of the following compounds of the present invention against cortisone reducing activity of human adipose cell was determined.

| Structure (SMILES) | IC50 |
| --- | --- |
| Cc1cc(C(=O)c2cccn2C)sc1C(=O)NC1C2CC3CC1CC(O)(C3)C2 (stereo not drawn) [Example 11] | 4.3 nM |
| O=C(c1ccc(C(=O)NC2C3CC4CC2CC(O)(C4)C3)c(Cl)c1)c1ccccc1F (stereo not drawn) [Example 16] | 3.6 nM |
| COCc1cc(C(=O)c2ccccc2)ccc1C(=O)N[C@H]1C2CC3CC1C[C@](O)(C3)C2 [Example 51] | < 3 nM |
| O=C(Cc1ccccc1)c1ccc(C(=O)N[C@H]2C3CC4CC2C[C@](O)(C4)C3)c(Cl)c1 [Example 52] | 12 nM |
| Cn1cccc1C(=O)c1ccc(C(=O)N[C@H]2C3CC4CC2C[C@](O)(C4)C3)c(Cl)c1 [Example 53] | 16 nM |
| Cc1cc(C(=O)c2ccccc2)n(C)c1C(=O)N[C@H]1C2CC3CC1C[C@](O)(C3)C2 [Example 62] | < 3 nM |
| CCc1cc(C(=O)c2ccc(F)cc2)ccc1C(=O)NC1C2CC3CC1CC(O)(C3)C2 (stereo not drawn) [Example 98] | 3 nM |
| CCn1nccc1C(=O)c1ccc(C(=O)NC2C3CC4CC2CC(O)(C4)C3)c(COC)c1 (stereo not drawn) [Example 368] | 3.7 nM |
| CCCc1cc(C(=O)c2cccn2C)ccc1C(=O)NC1C2CC3CC1CC(O)(C3)C2 (stereo not drawn) [Example 424] | < 3 nM |
| COCc1cc(C(=O)c2ccccn2)ccc1C(=O)NC1C2CC3CC1CC(O)(C3)C2 (stereo not drawn) [Example 429] | 9.5 nM |
| COCc1cc(C(=O)c2ccccc2)n(C)c1C(=O)N[C@H]1C2CC3CC1C[C@](O)(C3)C2 [Example 440, 5-Benzoyl-N-[(E)-5-hydroxyadamantan-2-yl]-3-(methoxymethyl)-1-methyl-1H-pyrrole-2-carboxamide] | < 3 nM |
| COCCc1cc(C(=O)c2ccccc2F)ccc1C(=O)N[C@H]1C2CC3CC1C[C@](O)(C3)C2 [Example 443, 4-(2-Fluorobenzoyl)-N-[(E)-5-hydroxyadamantan-2-yl]-2-(2-methoxyethyl)benzamide] | 1.4 nM |
| CCc1cc(C(=O)c2cccc(OC)c2F)n(C)c1C(=O)NC1C2CC3CC1CC(O)(C3)C2 (stereo not drawn) [Example 486] | 2.8 nM |
| CCc1cc(C(=O)c2cccc(F)c2F)n(C)c1C(=O)NC1C2CC3CC1CC(O)(C3)C2 (stereo not drawn) [Example 488] | 4.2 nM |
| CCc1cc(C(=O)c2ccc(C)s2)n(C)c1C(=O)NC1C2CC3CC1CC(O)(C3)C2 (stereo not drawn) [Example 499] | < 3 nM |
| CCc1cc(C(=O)C2(c3ccccc3)CCC2)n(C)c1C(=O)NC1C2CC3CC1CC(O)(C3)C2 (stereo not drawn) [Example 504] | 7.3 nM |
| Cn1c(C(=O)c2cccc(F)c2)cc(Cl)c1C(=O)NC1C2CC3CC1CC(O)(C3)C2 (stereo not drawn) [Example 515] | 1.5 nM |
| Cn1c(C(=O)c2ccc(F)cc2)cc(Cl)c1C(=O)NC1C2CC3CC1CC(O)(C3)C2 (stereo not drawn) [Example 516] | < 3 nM |
